For six compounds, IC50 and EC50 results are on record in ChEMBL document CHEMBL1138741, “Virulence regulation and quorum sensing in staphylococcal infections: competitive AgrC antagonists as quorum sensing inhibitors” (J Med Chem, 2004).

The target in assay [1] is T1, Receptor-histidine kinase AgrC (Staphylococcus aureus, UniProt O07911).
T1 sequence (O07911 whole entry): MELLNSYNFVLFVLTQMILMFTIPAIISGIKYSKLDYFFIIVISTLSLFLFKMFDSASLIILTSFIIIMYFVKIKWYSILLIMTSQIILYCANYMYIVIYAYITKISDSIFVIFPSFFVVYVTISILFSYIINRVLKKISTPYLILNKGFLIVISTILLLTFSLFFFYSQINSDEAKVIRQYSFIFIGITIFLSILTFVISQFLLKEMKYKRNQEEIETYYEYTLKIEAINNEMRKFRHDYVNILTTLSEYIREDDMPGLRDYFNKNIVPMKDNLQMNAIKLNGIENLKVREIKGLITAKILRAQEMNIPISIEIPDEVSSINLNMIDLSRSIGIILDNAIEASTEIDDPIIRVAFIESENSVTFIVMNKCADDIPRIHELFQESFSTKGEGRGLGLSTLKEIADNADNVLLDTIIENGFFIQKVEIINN
In words: Concentration required to inhibit quorum sensor of Staphylococcus aureus.

The target in assay [2] is T1, Receptor-histidine kinase AgrC. In words: Concentration required to antagonise accessory gene regulator C3 of Staphylococcus aureus. The format is functional.
For assay [3] the target is unchanged. In words: Concentration required to antagonise accessory gene regulator C2 of Staphylococcus aureus. The format is functional.
Assay [4] has the same target. The assay is described as follows: Antagonistic concentration for accessory gene regulator C1 of Staphylococcus aureus. The class given is functional.
The target is the same in assay [5]. The assay is described as follows: Effective concentration to antagonise accessory gene regulator C4 of Staphylococcus aureus. The format is functional.
The target is the same in assay [6]. In words: Effective concentration to antagonise accessory gene regulator C1 of Staphylococcus aureus; range = 9-11 uM. The class given is functional.
For assay [7] the target is unchanged. In words: Effective concentration to antagonise accessory gene regulator C3 of Staphylococcus aureus. The format is functional.
The target is the same in assay [8]. In words: Concentration required to antagonise accessory gene regulator C4 of Staphylococcus aureus. The class given is functional.
Assay [9] has the same target. In words: Effective concentration to antagonise accessory gene regulator C2 of Staphylococcus aureus. The format is functional.

Values joined by “and” are separate entries in the source; they are usually repeats but may differ in a detail not shown here. Equal entries are not always repeated. Where a SMILES comes first, the peptide text is derived from it.

Regarding `CC[C@H](C)[C@@H]1NC(=O)[C@H](Cc2ccccc2)NC(=O)[C@H](CC(=O)O)NC(=O)[C@@H](NC(C)=O)CSC(=O)[C@H](CCSC)NC1=O` (HELM PEPTIDE1{[ac].C.D.F.I.M}$PEPTIDE1,PEPTIDE1,2:R3-6:R2$$$V2.0), the IC50 in assay [1] is 8000 nM.
With `CC[C@H](C)[C@@H]1NC(=O)[C@H](Cc2ccccc2)NC(=O)[C@H](Cc2ccc(O)cc2)NC(=O)[C@@H](NC(=O)[C@@H](NC(=O)[C@H](CO)NC(=O)[C@@H](N)Cc2ccc(O)cc2)[C@@H](C)O)CSC(=O)[C@H](CCSC)NC1=O` [YSTCYFIM] (HELM PEPTIDE1{Y.S.T.C.Y.F.I.M}$PEPTIDE1,PEPTIDE1,4:R3-8:R2$$$V2.0), the IC50 in assay [2] was 1 nM; in [3], 4 nM; in assay [4], 7000 nM. The compound also showed an EC50 in assay [5] of 13 nM.
In the case of `CC[C@H](C)[C@@H]1NC(=O)[C@H](Cc2ccccc2)NC(=O)[C@H](CC(=O)O)NC(=O)[C@@H](NC(=O)[C@@H](NC(=O)[C@H](CO)NC(=O)[C@@H](N)Cc2ccc(O)cc2)[C@@H](C)O)CSC(=O)[C@H](CCSC)NC1=O` (HELM PEPTIDE1{Y.S.T.C.D.F.I.M}$PEPTIDE1,PEPTIDE1,4:R3-8:R2$$$V2.0), the half-maximal effective concentration (EC50) in assay [6] came out at 11000 nM.
For H-INCDFLL-OH, the 50% inhibitory concentration (IC50) came out at 6 nM in [3], 70 nM in assay [4] and 150 nM in assay [8]. For the same compound, the EC50 in assay [7] turned out to be 26 nM.
As for `CC(C)C[C@@H]1NC(=O)[C@H](CO)NC(=O)[C@H](CO)NC(=O)[C@@H](NC(=O)[C@H](C)NC(=O)[C@H](CC(N)=O)NC(=O)[C@@H](NC(=O)CN)C(C)C)CSC(=O)[C@H](Cc2ccccc2)NC1=O` [GVNACSSLF] (HELM PEPTIDE1{G.V.N.A.C.S.S.L.F}$PEPTIDE1,PEPTIDE1,5:R3-9:R2$$$V2.0), the IC50 in [2] amounted to 1 nM; in [8], 86 nM. This compound also showed a concentration giving a half-maximal response (EC50) in assay [9] of 3.6 nM.
As for `CC[C@H](C)[C@@H]1NC(=O)[C@H](Cc2ccccc2)NC(=O)[C@H](C)NC(=O)[C@@H](NC(=O)[C@@H](NC(=O)[C@H](CO)NC(=O)[C@@H](N)Cc2ccc(O)cc2)[C@@H](C)O)CSC(=O)[C@@H](CCSC)NC1=O`, the half-inhibitory concentration (IC50) in assay [1] is 256 nM and 30 nM.

A word on the IC50: it is the midpoint of a concentration-inhibition curve. Lower therefore signals greater potency in that assay. The term EC50 denotes the concentration that produces a half-maximal response. A low value points to greater potency.
